We go through 2 compounds from ChEMBL document CHEMBL1134909, “A 5-fluorodeoxyuridine prodrug as targeted therapy for prostate cancer” (Bioorg Med Chem Lett, 2002).

What is called pIC50 is the IC50 on a negative log10 scale, so that one unit is a factor of ten. A lower pIC50 goes with a large IC50.

pIC50: −log10 of the molar value. *1 amine or outer side, *2 acyl side, *3 side chain or, on linkers, in order; H or OH if unused. Where a SMILES comes first, the peptide text is derived from it. [ ]: non-standard residue; d: D form. The star is where a group is joined. X1 = O=c1[nH]c(=O)n([C@H]2C[C@H](O)[C@@H](CO*)O2)cc1F; Morpholide = C1CN(*)CCO1; Aib = CC(C)(N)C(=O)O; CO = O=C([*:1])[*:2]

The subject of one assay is TSU. The experiment in a line: Cytotoxic concentration in non prostate specific antigen (PSA) producing human TSU cells. It is filed as functional, cell-based.
For the next assay, the system named is LNCaP. Nature of the assay: Cytotoxic concentration in prostate specific antigen (PSA) producing human LNCaP cells. The format is functional, cell-based.

As for `CC(C)C[C@H](NC(=O)[C@H](CCCCN)NC(=O)[C@H](CO)NC(=O)[C@H](CO)NC(=O)[C@H](Cc1c[nH]cn1)NC(=O)N1CCOCC1)C(=O)N[C@@H](CCC(N)=O)C(=O)N[C@@H](CC(C)C)C(=O)NC(C)(C)C(=O)OC[C@H]1O[C@@H](n2cc(F)c(=O)[nH]c2=O)C[C@@H]1O` ({Morpholide-CO}-HSSKLQL[Aib]-X1), the pIC50 in the assay with TSU is 5.14; with LNCaP, 6.93.

Regarding `O=c1[nH]c(=O)n([C@H]2C[C@H](O)[C@@H](CO)O2)cc1F` [FLOXURIDINE], the pIC50 was 7.24 in the assay with TSU and 7.16 in the assay on LNCaP.
